Assay results published in patent publication US5001234A, “Cyclic hydrocarbons with an aminoalkyl sidechain” (The Upjohn Company, priority 1989, dated 1991).
Structures can show the parent of a compound that is named as a salt.

System: KKA^y mice with spontaneous diabetes
Experiment: Blood glucose lowering in the KKA^y mouse
Type: in vivo
Design: key: Compounds that have been found to have a phospholipase A2 inhibitory or antidiabetic effect as determined by at least one of the above assays are indicated in the Examples and Preparations which follow by the notation "PLA2" and/or "diabetes" respectively; Compounds that have been found to have a phospholipase A2 inhibitory or antidiabetic effect as determined by at least one of the above assays are indicated in the Examples and Preparations which follow by the notation "PLA2" and/or "diabetes" respectively
Conditions: compound 1 mg/gram of chow, nonfasting blood glucose on day 4 of treatment
Description: All KKA^y mice used for screening are produced and selected by methods previously outlined, T. Fujita et al., Diabetes, 32 804-10 (1983). Groups of 6 animals each are employed.
Pre-treatment nonfasting blood glucose (NFBG) samples are measured 5 days prior to the start of a screening run by previously described methodologies. These blood sugar values are used to place animals into groups with equal mean blood glucose concentrations and to eliminate any mice with a NFBG value <250 mg/dl. On day 0, compounds chosen to be run are incorporated into ground mouse chow (Purina 5015). Compounds are included at a rate of 1 mg/gram of chow. Generally, 300 g of drugs containing diet is prepared for each group. Mice receiving ground chow only are the negative control. Each screening run also uses ciglitazone (T. Fujita, et al., supra) as a positive control (0.5 to 1.0 mg/gram chow).
Initial body and food weights are taken on day 1. Food is placed in a crock which contains an adequate amount to last for the length of the study. In order to acclimate the mice from pelleted mouse chow to ground mouse chow, they are fed the ground chow for 9 days prior to use in the screen. On day 4 of treatment, a NFBG sample is again measured, as well as food and body weights. Food consumption measurements are used to determine an average mg/kg dose the mice received over the testing period, and to evaluate the compound's effect on food consumption.
3. Acceptance of a Screening Run and Determination of Activity
Acceptance and activity are determined by the following criteria:
This group must not show a significant change (p<0.05) from pre-to post-treatment. If there is a significant decrease in blood sugar the run is not valid.
This group must show a significant depression in blood sugar mean levels from pre- to post-treatment. A lack of activity in this group would also invalidate the run.
C. Negative Control vs. Positive Control
This contrast must be significant. It is a further assurance that both control groups performed as expected.
A compound's activity is based on several criteria:
(1) A significant decrease in blood sugar mean levels from pre- to post-treatment.
(2) Negative control vs. compound: This contrast allows one to determine if these groups are dissimilar, which is required for the compound to be considered active.

| Structure (SMILES) | antidiabetic effect (notation "diabetes") |
| --- | --- |
| C[C@]12CC[C@@H]3c4ccc(OCCCO)cc4CC[C@H]3[C@@H]1CC[C@@H]2NCc1cccc(C(F)(F)F)c1 [Example 3] | diabetes |
| CN(CCc1ccc(S(N)(=O)=O)cc1)[C@H]1CC[C@H]2[C@@H]3CC[C@H]4CCCC[C@]4(C)[C@H]3CC[C@]12C [Example 6] | diabetes |
| COc1cc2c(cc1C)[C@H]1CC[C@]3(C)[C@@H](NCCc4ccc(S(N)(=O)=O)cc4)CC[C@H]3[C@@H]1CC2 [Example 7] | diabetes |
| C[C@]12CC=CC[C@@H]1CC[C@@H]1[C@@H]2CC[C@]2(C)[C@@H](NCCc3ccc(S(N)(=O)=O)cc3)CC[C@@H]12 [Example 8] | diabetes |
| COc1ccc2c(c1)CC[C@@H]1[C@@H]2[C@@H](O)C[C@]2(C)[C@@H](NCc3cccc(C(F)(F)F)c3)CC[C@@H]12 [Example 5] | diabetes |
| C=CCOc1ccc2c(c1)CC[C@@H]1[C@@H]2CC[C@]2(C)[C@@H](NCc3cccc(C(F)(F)F)c3)CC[C@@H]12 [Example 2, 3-Allyloxy-17β-[((3-trifluoromethyl)phenylmethyl)-amino-estra-1,3,5(10)-triene Fumarate] | diabetes |
| COc1ccc2c(c1)CC[C@@H]1[C@@H]2CC[C@]2(C)[C@@H](NCc3cccs3)CC[C@@H]12 [Example 1, 3-Methoxy-17β-[(2-thienylmethyl)amino]-estra-1,3,5-(10)-triene] | diabetes |
| COc1ccc2c(c1)C[C@@H](C)[C@@H]1[C@@H]2CC[C@]2(C)[C@@H](NCc3cccc(C(F)(F)F)c3)CC[C@@H]12 [Example 4, 3-Methoxy-7α-methyl-17β-[((3-trifluoromethyl)phenylmethyl)amino-estra-1,3,5(10)-triene Fumarate Hydrate] | diabetes |

System: phospholipase A2
Experiment: Phospholipase A2 inhibition by at least one of two tests: inhibition of rat neutrophil aggregation, inhibition of hog pancreas PLA2
Type: biochemical
Design: key: Compounds that have been found to have a phospholipase A2 inhibitory or antidiabetic effect as determined by at least one of the above assays are indicated in the Examples and Preparations which follow by the notation "PLA2" and/or "diabetes" respectively; Compounds that have been found to have a phospholipase A2 inhibitory or antidiabetic effect as determined by at least one of the above assays are indicated in the Examples and Preparations which follow by the notation "PLA2" and/or "diabetes" respectively
Conditions: found in at least one of the assays (rat neutrophil aggregation, FMLP; hog pancreas PLA2)
Description: Inhibition of Rat Neutrophil Aggregation
1. Method for Thioglycolate Broth Preparation
Weigh sufficient thioglycolate medium, USP grade, to prepare a 5% w/v solution in sterile water. Heat the solution for 10 minutes on a boiling water bath. Remove and allow the solution to cool to 20°-25°. Inject 10±0.5 ml intraperitoneally into Sprague-Dawley rats as described below.
2. Method for Rat Peritoneal Leukocyte Collection
Six (6) Sprague-Dawley, pathogen free, female rats (230-270 grams) are injected intraperitoneally with 10.0±0.5 ml thioglyco. late broth. 5% w/v […] prior to sacrifice. After sacrifice by cervical dislocation, leukocytes accumulated in the peritoneal cavity are collected by injecting 30 ml of sterile 0.9% w/v sodium chloride intraperitoneally and vigorously massaging the abdomen to assure uniform dispersion of the cells within the carcass. Use a pasteur pipet to remove approximately 20 ml of fluid with suspended cells from a small incision through the abodominal wall. Collect the cell suspension in plastic culture tubes.
3. Washing and Resuspension of Cells for Aggregation
Centrifuge the cell suspensions isolated above for 10 minutes at 1000 rpm (Sorvall RC.3, HG-4L rotor, 25° C.). Discard the supernatant. Resuspend the cells evenly in 0.9% NaCl to original volume, centrifuge a second time for 10 minutes at 1000 rpm. Discard the supernatant. […]

| Structure (SMILES) | phospholipase A2 inhibitory effect (notation "PLA2") |
| --- | --- |
| CN(C)CCCO[C@H]1CC[C@H]2[C@@H](CC[C@@H]3[C@@H]2CC[C@]2(C)C(NCCCN)CC[C@@H]32)C1 (stereo partly drawn) [Example 10, N-[(3β,5α)-3-[3-(dimethylamino)propoxy]estran.17-yl]-1,3-diaminopropane] | PLA2 |
| C[C@]12CC[C@H]3[C@@H](CC[C@H]4C[C@@H](OCCCN)CC[C@@H]43)[C@@H]1CCC2=O [Preparation 8, N-(3β,5α)-3-(3-aminopropoxy)estran-17-one] | PLA2 |
